Experimental data from patent US11679095B2, “Macrophages/microglia in neuro-inflammation associated with neurodegenerative diseases” (The General Hospital Corporation, priority 2016, dated 2023).
“Also recorded” adds a separate entry of the source. Each block holds one molecule with its values, some of them ahead of it.

Assays:
[1] = Solubility in DMSO (stock solutions); assay type: physicochemical; details: in comparison to the other compounds / earlier aliquot
Procedure: Therefore, a 25 mM stock solutions for all the compounds except for C3 and C4 were prepared. The stock solutions for C3 and C4 were prepared at 5 mM and 7.5 mM, respectively. C1 is the parent compound—cromolyn disodium.

[2] = system: naïve BV2 microglial cells; assay: Aβ42 uptake ELISA, 3 h cromolyn derivative treatment, naïve BV2; assay type: cell-based; details: 3 hours + 2 hours
Procedure: (§1) To investigate the effect of cromolyn derivatives on Aβ42 uptake in microglia, naïve BV2 or BV2-CD33^WT cells were plated in proliferating media. On the following day, cells were treated with DMSO (control) or the compounds at different concentrations in proliferating media for 3 hours. […] Afterwards, cells were washed with PBS and treated with DMSO or compounds in the presence of the untagged Aβ42 peptide (400 nM) in DMEM media for 2 hours. Compound toxicity was assessed in the media collected at the end of the treatment with CytoTox-ONE™ lactate dehydrogenase (LDH) assay. The remaining cells in the plate were washed with cold PBS and lysed with RIPA buffer supplemented with protease and phosphatase inhibitors. Protein concentrations in the lysate supernatants were determined using the Pierce™ BCA protein assay kit and 2-3 μg/well of total protein from each lysate was analyzed for Aβ42 uptake using the Aβ42 ELISA kit from Wako. Toxic compound concentrations were excluded from further studies.
To test whether cromolyn derivatives modulate Aβ42 uptake, naïve BV2 microglial cells were treated with DMSO (control) or cromolyn derivative compounds at different concentrations for 3 hours. Afterwards, the cells were washed and treated with DMSO or compounds in the presence of untagged Aβ42 peptide for 2 hours. At the end of the treatment, the cell lysates were collected. […]

BV2-CD33^WT cells = assay: Aβ42 uptake ELISA, 3 h cromolyn derivative treatment, BV2-CD33^WT; assay type: cell-based
Procedure: as §1
Further, whether cromolyn derivatives impact Aβ42 uptake and clearance in BV2-CD33^WT cells was determined by two independent sets of experiments. BV2-CD33^WT cells were treated with DMSO (control) or cromolyn derivatives at different concentrations ranging between 5 and 150 μM.
The compound C2 was tested with other cromolyn derivatives in the second set of experiments.

[3] = system: naïve BV2 microglial cells; assay: CytoTox-ONE lactate dehydrogenase (LDH) toxicity assay; assay type: cell-based; details: 3 hours + 2 hours with Aβ42
Procedure: On the following day, cells were treated with DMSO (control) or the compounds at different concentrations in proliferating media for 3 hours. […] Afterwards, cells were washed with PBS and treated with DMSO or compounds in the presence of the untagged Aβ42 peptide (400 nM) in DMEM media for 2 hours. Compound toxicity was assessed in the media collected at the end of the treatment with CytoTox-ONETM lactate dehydrogenase (LDH) assay. The remaining cells in the plate were washed with cold PBS and lysed with RIPA buffer supplemented with protease and phosphatase inhibitors. […] Toxic compound concentrations were excluded from further studies. To investigate whether cromolyn derivatives induce cytotoxicity at higher doses, naïve BV2 microglial cells were incubated with DMSO (vehicle) or cromolyn derivatives at different concentrations for 3 hours. The cells were then washed and incubated with DMSO or compounds and soluble untagged Aβ42 for additional 2 hours. Afterwards, the cell media was collected and measured LDH released by the damaged cells to identify the compounds that induce cytolysis.

BV2 microglial cells = assay: Aβ42 uptake in BV2 microglial cell cultures, cromolyn and/or ibuprofen (ELISA); assay type: cell-based; details: 10 μM, 100 μM, 1 mM; 16 hours, then 3 hours with soluble Aβ42
Procedure: BV2 microglial cell cultures were treated with cromolyn and/or ibuprofen (10 μM, 100 μM, 1 mM) for 16 hours. Afterwards, cells were incubated with soluble Aβ42 and the compounds for 3 hours. After incubation, cells were collected for ELISA analysis. […] Results were derived from three independent experiments; **p<0.01, ***p<0.001, one-way ANOVA, Tukey's test). Data are represented as mean±SEM.

SMILES: O=c1cc(CO)oc2cccc(OCC(F)COc3cccc4oc(CO)cc(=O)c34)c12 [C6]
Aβ42 uptake ([2]; different concentrations): robust inhibition of Aβ42 uptake | Aβ42 uptake (BV2-CD33^WT cells; different concentrations, first set of experiments, vs DMSO): dose-dependent effect in mediating inhibition of Aβ42 uptake

SMILES: CC(C)(C)C(=O)OCOC(=O)c1cc(=O)c2c(OCC(O)COc3cccc4oc(C(=O)OCOC(=O)C(C)(C)C)cc(=O)c34)cccc2o1 [C8]
toxicity (LDH released) ([3]; 100 and 150 μM, vs DMSO): showing toxicity; also recorded: increased toxicity | concentration at which toxicity is displayed in LDH assay [3]: ≥ 100 µM

SMILES: CC(C)Cc1ccc(C(C)C(=O)O)cc1 (stereo not shown) [ibuprofen]
microglial Aβ42 uptake (BV2 microglial cells): not ibuprofen promotes microglial Aβ42 uptake

Continued, in another order:

solubility in DMSO [1]: lower solubility in DMSO
SMILES: O=C(O)c1cc(=O)c2c(OCC(O)COc3cccc4oc(C(=O)O)cc(=O)c34)cccc2o1 [C1, Cromolyn Disodium, reference compound]

solubility in DMSO [1]: lower solubility in DMSO
SMILES: CCOC(=O)c1cc(=O)c2c(OCC(O)COc3cccc4oc(C(=O)OCC)cc(=O)c34)cccc2o1 [C3]

IC50 (BV2-CD33^WT cells; GraphPad Prism 7, first set of experiments): 54.7 µM | solubility in DMSO [1]: lower solubility in DMSO
SMILES: CCOC(=O)c1cc(=O)c2c(OCC(F)COc3cccc4oc(C(=O)OCC)cc(=O)c34)cccc2o1 [C4]
Aβ42 uptake ([2]; 75 μM, vs vehicle): increased uptake of Aβ42 peptide; also recorded: significantly increased Aβ42 uptake levels | Aβ42 uptake (BV2-CD33^WT cells; 50 μM, first set of experiments): dose-dependent effect | Aβ42 uptake in comparison to DMSO (BV2-CD33^WT cells; 75 μM, first set of experiments): two-fold increase; also recorded: increased uptake of Aβ42 | Aβ42 uptake (BV2-CD33^WT cells; 75 μM, second set of experiments): most effective in increasing the Aβ42 uptake | Aβ42 uptake (BV2-CD33^WT cells; 50 and 75 μM, second set of experiments, vs DMSO): effectively induced Aβ42 uptake | CD33-mediated inhibition of Aβ uptake and clearance (BV2-CD33^WT cells; both sets of experiments): reversed the CD33-mediated inhibition of Aβ uptake and clearance | Aβ42 uptake (BV2-CD33^WT cells; lower concentrations, second set of experiments, vs DMSO): dose-dependent effect at lower concentrations
